Measured values published in patent US12102631B2, “Quinolylnitrones for the treatment and prevention of a cerebral stroke or ischaemia” (ISQUAEMIA BIOTECH, S.L., priority 2018, dated 2024).

How the values were obtained:
Format in all cases: biochemical
[1] = Interaction with the stable radical DPPH; conditions: tested at 100 μM; reducing activity
Procedure: Interaction of the nitrone with the Stable Radical 1,1-diphenyl-picrylhydrazyl (DPPH) To a solution of DPPH in absolute ethanol the appropriate volume of the compounds (0.1 mM final concentrations) dissolved in DMSO was added. The absorbance was recorded at 517 nm after 20 and 60 min at room temperature (Table 1).
3.1. Antioxidant activity of QNs using radical DPPH. […] This purple colour generally disappears in the presence of an antioxidant due to the reduction of the DPPH radical by single electron transfer (SET) from the antioxidant converted it to colourless/bleached product. […] In this assay, we measured the initial absorbance of DPPH and the absorbance once the potential antioxidant was added. The antioxidant activity was expressed as the percentage of reducing activity.

soybean lipoxygenase LOX = molecular target: T1, soybean lipoxygenase LOX (Glycine max, UniProt P08170); assay: Lipoxygenase (LOX) inhibition, UV-based enzyme assay; conditions: for LOX (%): tested at 100 μM
T1 sequence (P08170 1-839): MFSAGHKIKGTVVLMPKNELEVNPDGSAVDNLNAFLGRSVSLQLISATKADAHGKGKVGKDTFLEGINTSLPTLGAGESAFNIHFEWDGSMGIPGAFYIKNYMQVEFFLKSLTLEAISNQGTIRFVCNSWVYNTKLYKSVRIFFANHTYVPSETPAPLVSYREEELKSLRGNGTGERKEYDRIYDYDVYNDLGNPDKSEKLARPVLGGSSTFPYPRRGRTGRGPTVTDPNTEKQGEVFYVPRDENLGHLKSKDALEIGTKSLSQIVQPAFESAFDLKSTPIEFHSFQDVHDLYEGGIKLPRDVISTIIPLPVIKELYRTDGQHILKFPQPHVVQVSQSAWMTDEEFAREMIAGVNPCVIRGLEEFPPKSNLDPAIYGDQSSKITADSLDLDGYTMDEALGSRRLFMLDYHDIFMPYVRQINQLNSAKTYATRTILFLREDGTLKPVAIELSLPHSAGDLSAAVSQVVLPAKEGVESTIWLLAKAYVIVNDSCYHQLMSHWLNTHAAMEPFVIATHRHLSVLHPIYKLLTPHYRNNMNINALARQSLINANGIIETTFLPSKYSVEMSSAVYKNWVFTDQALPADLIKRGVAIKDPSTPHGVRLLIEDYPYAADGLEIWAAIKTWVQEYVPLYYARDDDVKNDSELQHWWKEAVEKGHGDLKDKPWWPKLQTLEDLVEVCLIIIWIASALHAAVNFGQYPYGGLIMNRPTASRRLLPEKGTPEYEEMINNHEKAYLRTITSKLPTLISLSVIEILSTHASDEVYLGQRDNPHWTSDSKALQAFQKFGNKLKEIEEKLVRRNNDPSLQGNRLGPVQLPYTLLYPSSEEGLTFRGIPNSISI
From the text: 3.5. Lipoxygenase inhibition of QNs. […] A key strategy to prevent potential damage to cellular compounds such as DNA, proteins and lipids is to reduce the free radical load. […] LOX index, a novel predictive biochemical marker for coronary heart disease and stroke. […] Thus, LOX inhibitors may provide multifactorial protection against ischemic injury. […] Most of the LOX inhibitors are often antioxidants or free radical scavengers.

[2] = Superoxide radical scavenging (hypoxanthine/xanthine oxidase system); conditions: tested at 100 μM (0.1 mM)
From the text: 3.7. Superoxide radical scavenging activity. Superoxide anion radical (O2⋅−) is less toxic than hydroxyl radical, but still one of the most known harmful toxic ROS. In physiological conditions, superoxide dismutase catalyzes its conversion to H2O2, which is the precursor for the formation of hydroxyl radicals in the presence of iron ions.43 Superoxide anion radicals O2⋅− and H2O2 are ROS produced in vivo through a one-electron reduction process of O2. The evaluation of superoxide anion radical scavenging activity can be determined using assays involving non-enzymatic or enzymatic production of superoxide anions. In this assay, superoxide anion radicals were generated by a hypoxanthine and xanthine oxidase reaction system, and the O2⋅− scavenging activity (%) has been measured spectrophotometrically.

[3] = ABTS radical cation decolorization assay; conditions: tested at 100 μM
Procedure: ABTS^⋅+-decolorization assay in ethanolic solution for antioxidant activity.^32,35 ABTS is dissolved in water to a 2 mM concentration. ABTS radical cation (ABTS^⋅+) is produced by reacting the ABTS stock solution with 0.17 mM potassium persulfate in phosphate buffer (pH 7.4, 20 mM) and allowing the mixture to stand in the dark at room temperature for 12-16 h before use. For steady state measurements, […] ABTS^⋅+ was used. For the present study, the […] ABTS^⋅ solution (200 μL) was diluted with ethanol (790 μL) to an absorbance of 0.70 at 734 nm, equilibrated at room temperature, mixed with 10 μL of the tested compounds (stock solutions 10 mM) and the absorbance reading was taken at room temperature 1 min after the initial mixing. Trolox was used as a standard.
3.4. ABTS^⋅+ antioxidant activity of QNs. The ABTS^⋅+ radical cation, derived from the oxidation of 2,2′-azino-bis(3-ethylbenzothiazoline-6-sulphonic acid) (ABTS) by potassium persulfate, is a green-blue stable chromophore, which can be analyzed in the course of a decolorization assay. The addition of electron-donor antioxidants leads to ABTS^⋅+ reduction. The chemistry taking place involves the direct generation of the ABTS^⋅+ with no involvement of an intermediary radical. […] Again, and as shown, QN23 presented limited activity beside with 19, although the others nitrones had no activity (Table 3).

[4] = Hydroxyl radical scavenging (competition with DMSO); conditions: tested at 100 μM
Procedure: Hydroxyl Radicals Scavenging Activity.^32 The hydroxyl radicals were produced by the Fe^3+/ascorbic acid system. EDTA (0.1 mM), Fe^3+ (167 μM), DMSO (33 mM) in phosphate buffer (50 mM, pH 7.4), the tested compounds (0.1 mM) and ascorbic acid (10 mM) were mixed in test tubes. The solutions were incubated at 37° C. for 30 min. The reaction was stopped by trichloroacetic acid (17% w/v) (Table 1) and the % scavenging activity of the tested compounds for hydroxyl radicals was given.
3.2. Competition of QNs with DMSO for hydroxyl radicals. Among the ROS, the hydroxyl (·OH) free radical is possibly the most toxic, as it easily reacts with biological important molecules such as DNA, lipids or carbohydrates. Polyunsaturated fatty acids are found in high concentrations in the CNS, and are particularly vulnerable to free radicals attack. Thus, we tried to test the ability of our compound to scavenge hydroxyl radicals. […] Antioxidants with lipophilic character are needed to act as radical scavengers or as chain-breaking antioxidants in biological membranes.

SMILES	IC50 (soybean lipoxygenase LOX) [µM]	DPPH (%) [1]	O2*− (%) [2]	ABTS*+ (%) [3]	*OH (%) [4] [%]	LOX (%) (soybean lipoxygenase LOX)
CC(C)(C)/[N+]([O-])=C/c1ccc(S(=O)(=O)O)cc1S(=O)(=O)O [Compound 2, sodium (Z)-4-((tert-butyloxidoazanylidene)methyl)benzene-1,3-disulfonate, reference compound]	57.5	no	no activity and no	no	94	–
CC(C)(C)/[N+]([O-])=C/c1cc2ccccc2nc1Cl [Compound 18, (Z)—N-t-Butyl-1-(2-chloroquinolin-3-yl)methanimine oxide]	–	7%	16%	no	97	–
CC(C)(C)/[N+]([O-])=C/c1cc2ccccc2[nH]c1=O [Compound 19, (Z)—N-tert-Butyl-1-(2-oxo-1,2-dihydroquinolin-3-yl)methanimine oxide]	36.5	no	23%	6%	99	–
COc1ccc2nc(Cl)c(/C=[N+](/C)[O-])cc2c1 [Compound 22, (Z)-1-(2-Chloro-6-methoxyquinolin-3-yl)-N-methylmethanimine oxide]	–	no	29%	no	100	26
COc1ccc2nc(Cl)c(/C=[N+](\[O-])C(C)(C)C)cc2c1 [Compound 23, (Z)—N-tert-Butyl-1-(2-chloro-6-methoxyquinolin-3-yl)methanimine oxide]	–	4%	5%	7%	100	29

More lines, main results first:

IC50 (soybean lipoxygenase LOX) [µM]	SMILES	DPPH (%) [1]	O2*− (%) [2]	ABTS*+ (%) [3]	*OH (%) [4] [%]	LOX (%) (soybean lipoxygenase LOX)
100	COc1ccc2nc(Cl)c(/C=[N+](\[O-])Cc3ccccc3)cc2c1 [Compound 24, (Z)—N-Benzyl-1-(2-chloro-6-methoxyquinolin-3-yl)methanimine oxide]	3%	12.5%	no	65	–
7.6	COc1ccc2nc(Cl)c(C=O)cc2c1 [Compound 32, 2-chloro-6-methoxyquinoline-3-carbaldehyde, reference compound]	1%	23%	5%	89	–
